Key:
[1] = tested on: SNU-16; test: Cell SNU-16 assay; type: cell-based
[2] = biological target: FGFR2 (Homo sapiens (Human), UniProt P21802); test: Biochemical FGFR2 Caliper assay
[3] = Homo sapiens, SNU-16, SNU-16 cells

Chain of FGFR2 (P21802 22-821): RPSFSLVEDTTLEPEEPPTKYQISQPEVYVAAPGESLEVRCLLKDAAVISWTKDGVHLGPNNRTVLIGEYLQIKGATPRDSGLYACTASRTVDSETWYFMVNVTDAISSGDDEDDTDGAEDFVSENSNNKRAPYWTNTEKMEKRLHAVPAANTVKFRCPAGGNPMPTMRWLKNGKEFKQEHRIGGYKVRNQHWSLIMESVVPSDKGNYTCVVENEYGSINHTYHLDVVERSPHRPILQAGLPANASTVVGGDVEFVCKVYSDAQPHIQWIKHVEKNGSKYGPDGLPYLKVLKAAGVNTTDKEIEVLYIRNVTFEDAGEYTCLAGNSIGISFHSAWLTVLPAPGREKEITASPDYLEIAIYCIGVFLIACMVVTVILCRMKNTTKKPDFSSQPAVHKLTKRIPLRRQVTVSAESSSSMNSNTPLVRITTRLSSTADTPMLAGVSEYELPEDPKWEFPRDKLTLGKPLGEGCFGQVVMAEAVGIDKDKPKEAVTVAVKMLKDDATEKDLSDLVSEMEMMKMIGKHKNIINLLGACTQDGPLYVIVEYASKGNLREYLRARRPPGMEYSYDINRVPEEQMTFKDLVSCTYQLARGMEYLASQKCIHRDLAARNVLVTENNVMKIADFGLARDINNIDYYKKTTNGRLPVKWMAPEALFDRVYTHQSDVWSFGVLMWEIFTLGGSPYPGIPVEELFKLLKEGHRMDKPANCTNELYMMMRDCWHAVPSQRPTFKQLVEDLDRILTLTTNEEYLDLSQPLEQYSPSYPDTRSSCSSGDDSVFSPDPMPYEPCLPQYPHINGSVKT

Compound	IC50 [1, 3]	IC50 [2]	IC50 ([1]; SNU-16 cells)
C=C(C)C(=O)N1CC=C(c2c(-c3ccc(Oc4cccc(C)n4)cc3)c3c(N)ncnc3n2C)[C@@H]1C (single isomer, unassigned) [Example 931]	1000 to 100000 nM	250 to 1000 nM	
C=CC(=O)N1CC=C(c2c(-c3ccc(Oc4cccc(C)n4)cc3)c3c(N)ncnc3n2C)[C@H]1C (single isomer, unassigned) [Example 932]	250 to 1000 nM	100 to 250 nM	
C=CC(=O)N1CC=C(c2c(-c3ccc(Oc4cccc(C)n4)cc3)c3c(N)ncnc3n2C)[C@@H]1C (single isomer, unassigned) [Example 933]	≤ 100 nM	< 100 nM	
C=C(C)C(=O)Nc1ccc(-c2c(C3=CC[C@]4(CC3)CCN(C)C4=O)c3c(N)ncnc3n2C)cc1 (single isomer, unassigned) [Example 934]	≤ 100 nM	< 100 nM	
C=C(C)C(=O)Nc1ccc(-c2c(C3=CC[C@@]4(CC3)CCN(C)C4=O)c3c(N)ncnc3n2C)cc1 (single isomer, unassigned) [Example 935]	1000 to 100000 nM	1000 to 100000 nM	
C=C(C)C(=O)Nc1ccc(-c2c(C3=CC[C@@H](C(=O)N4CCCC4)C[C@H]3C)c3c(N)ncnc3n2C)cc1 (single isomer, unassigned) [Example 936]	250 to 1000 nM	1000 to 100000 nM	
C=C(C)C(=O)Nc1ccc(-c2c(C3=CC[C@H](C(=O)N4CCCC4)C[C@H]3C)c3c(N)ncnc3n2C)cc1 (single isomer, unassigned) [Example 938]	1000 to 100000 nM	1000 to 100000 nM	
C=C(C)C(=O)Nc1ccc(-c2c(C3=CC[C@H](C(=O)N4CCCC4)C[C@@H]3C)c3c(N)ncnc3n2C)cc1 (single isomer, unassigned) [Example 939]	1000 to 100000 nM	1000 to 100000 nM	
C=CC(=O)N1CC[C@@H](c2c(-c3ccc(Oc4cccc(C)n4)cc3)c3c(N)ncnc3n2C)[C@H]1C (single isomer, unassigned) [Example 940]	1000 to 100000 nM	1000 to 100000 nM	
C=CC(=O)N1CC[C@H](c2c(-c3ccc(Oc4cccc(C)n4)cc3)c3c(N)ncnc3n2C)[C@H]1C (single isomer, unassigned) [Example 941]	100 to 250 nM	250 to 1000 nM	
C=CC(=O)N[C@@H]1CCc2cc(-c3c(-c4ccc(Oc5nccc(C)n5)cc4)c4c(N)ncnc4n3C)ccc21 (single isomer, unassigned) [Example 942]	250 to 1000 nM	250 to 1000 nM	
C=CC(=O)N[C@@H]1CCc2ccc(-c3c(-c4ccc(Oc5nccc(C)n5)cc4)c4c(N)ncnc4n3C)cc2C1 (single isomer, unassigned) [Example 944]	1000 to 100000 nM	1000 to 100000 nM	
C=CC(=O)N[C@H]1CCc2ccc(-c3c(-c4ccc(Oc5nccc(C)n5)cc4)c4c(N)ncnc4n3C)cc2C1 (single isomer, unassigned) [Example 945]	1000 to 100000 nM	1000 to 100000 nM	
C#C[C@@H]1CCCN1C(=O)[C@H]1CC=C(c2c(-c3ccc(NC(=O)C(=C)C)cc3)n(C)c3ncnc(N)c23)CC1 (single isomer, unassigned) [Example 949]	1000 to 100000 nM	100 to 250 nM	
C#C[C@H]1CCCN1C(=O)[C@H]1CC=C(c2c(-c3ccc(NC(=O)C(=C)C)cc3)n(C)c3ncnc(N)c23)CC1 (single isomer, unassigned) [Example 950]	1000 to 100000 nM	1000 to 100000 nM	
C#C[C@@H]1CCCN1C(=O)[C@@H]1CC=C(c2c(-c3ccc(NC(=O)C(=C)C)cc3)n(C)c3ncnc(N)c23)CC1 (single isomer, unassigned) [Example 951]	100 to 250 nM	250 to 1000 nM	
C#C[C@H]1CCCN1C(=O)[C@@H]1CC=C(c2c(-c3ccc(NC(=O)C(=C)C)cc3)n(C)c3ncnc(N)c23)CC1 (single isomer, unassigned) [Example 953]	1000 to 100000 nM	< 100 nM	
C=C(C)C(=O)Nc1ccc(-c2c(C3=CC[C@@H](C(=O)N4CCC[C@]45CCOC5)CC3)c3c(N)ncnc3n2C)cc1 (single isomer, unassigned) [Example 954]		< 100 nM	≤ 100 nM
C=C(C)C(=O)Nc1ccc(-c2c(C3=CC[C@H](C(=O)N4CCC[C@@]45CCOC5)CC3)c3c(N)ncnc3n2C)cc1 (single isomer, unassigned) [Example 955]		1000 to 100000 nM	250 to 1000 nM
C=C(C)C(=O)Nc1ccc(-c2c(C3=CC[C@H](C(=O)NC4CCCC4)CC3)c3c(N)ncnc3n2C)cc1 (single isomer, unassigned) [Example 957]	≤ 100 nM	100 to 250 nM	
C=C(C)C(=O)Nc1ccc(-c2c(C3=CC[C@@H](C(=O)NC4CCCC4)CC3)c3c(N)ncnc3n2C)cc1 (single isomer, unassigned) [Example 958]	≤ 100 nM	250 to 1000 nM	
C=C(C)C(=O)Nc1ccc(-c2c(C3=CC[C@H](C(=O)N4CCC[C@@]45CCOC5)CC3)c3c(N)ncnc3n2C)cc1 (single isomer, unassigned) [Example 960]		1000 to 100000 nM	1000 to 100000 nM
C=C(C)C(=O)Nc1ccc(-c2c(C3=CC[C@@H](C(=O)N4CCC[C@]45CCOC5)CC3)c3c(N)ncnc3n2C)cc1 (single isomer, unassigned) [Example 961]		1000 to 100000 nM	250 to 1000 nM

Compound	IC50 [1, 3]	IC50 [2]	IC50 ([1]; SNU-16 cells)
C=CC(=O)Nc1ccc(-c2c(C3=CC[C@@H](C(=O)N4CCCC4)CC3)c3c(N)ncnc3n2C)cc1 (single isomer, unassigned) [Example 962]	≤ 100 nM	< 100 nM	
C=CC(=O)Nc1ccc(-c2c(C3=CC[C@H](C(=O)N4CCCC4)CC3)c3c(N)ncnc3n2C)cc1 (single isomer, unassigned) [Example 963]	≤ 100 nM	< 100 nM	
C=CC(=O)N[C@H]1C[C@@H]1c1c(-c2ccc(C(=O)N3CCCC3)cc2)c2c(N)ncnc2n1C (single isomer, unassigned) [Example 972]	1000 to 100000 nM	1000 to 100000 nM	
C=CC(=O)N[C@@H]1C[C@@H]1c1c(-c2ccc(C(=O)N3CCCC3)cc2)c2c(N)ncnc2n1C (single isomer, unassigned) [Example 973]	1000 to 100000 nM	250 to 1000 nM	
C=CC(=O)N[C@@H]1C[C@H]1c1c(-c2ccc(C(=O)N3CCCC3)cc2)c2c(N)ncnc2n1C (single isomer, unassigned) [Example 974]	1000 to 100000 nM	1000 to 100000 nM	
C=CC(=O)N[C@H]1C[C@H]1c1c(-c2ccc(C(=O)N3CCCC3)cc2)c2c(N)ncnc2n1C (single isomer, unassigned) [Example 975]	1000 to 100000 nM	1000 to 100000 nM	
C=C(C)C(=O)Nc1ccc(-c2c(C3=CC[C@H](C(=O)N4CCCCCC4)CC3)c3c(N)ncnc3n2C)cc1 (single isomer, unassigned) [Example 977]	≤ 100 nM	< 100 nM	
C=C(C)C(=O)Nc1ccc(-c2c(C3=CC[C@@H](C(=O)N4CCCCCC4)CC3)c3c(N)ncnc3n2C)cc1 (single isomer, unassigned) [Example 979]	250 to 1000 nM	250 to 1000 nM	
C=C(C)C(=O)Nc1ccc(-c2c(C3=CC[C@@H](C(=O)N4CCC[C@H]4COC)CC3)c3c(N)ncnc3n2C)cc1 (single isomer, unassigned) [Example 981]	250 to 1000 nM	250 to 1000 nM	
C=C(C)C(=O)Nc1ccc(-c2c(C3=CC[C@H](C(=O)N4CCC[C@H]4COC)CC3)c3c(N)ncnc3n2C)cc1 (single isomer, unassigned) [Example 982]	250 to 1000 nM	1000 to 100000 nM	
C=C(C)C(=O)Nc1ccc(-c2c(C3=CC[C@@H](C(=O)N4CCc5ccccc54)CC3)c3c(N)ncnc3n2C)cc1 (single isomer, unassigned) [Example 985]	250 to 1000 nM	250 to 1000 nM	
C=C(C)C(=O)Nc1ccc(-c2c(C3=CC[C@H](C(=O)N4CCc5ccccc54)CC3)c3c(N)ncnc3n2C)cc1 (single isomer, unassigned) [Example 986]	250 to 1000 nM	250 to 1000 nM	
C=C(C)C(=O)Nc1ccc(-c2c(C3=CC[C@@]4(CC3)Cc3ccccc3C4=O)c3c(N)ncnc3n2C)cc1 (single isomer, unassigned) [Example 987]	1000 to 100000 nM	1000 to 100000 nM	
C=C(C)C(=O)Nc1ccc(-c2c(C3=CC[C@]4(CC3)Cc3ccccc3C4=O)c3c(N)ncnc3n2C)cc1 (single isomer, unassigned) [Example 988]	≤ 100 nM	250 to 1000 nM	
C=C(C)C(=O)Nc1ccc(-c2c(C3=CC[C@H](C(=O)N4CCCC45COC5)CC3)c3c(N)ncnc3n2C)c(C)c1 (single isomer, unassigned) [Example 1029]	250 to 1000 nM	1000 to 100000 nM	
C=CC(=O)N[C@H]1CCN(c2cccc(-c3c(-c4ccc(Oc5cccc(C)n5)cc4)c4c(N)ncnc4n3C)c2)C1 (single isomer, unassigned) [Example 1031]	100 to 250 nM	< 100 nM	
C=CC(=O)N[C@@H]1CCN(c2cccc(-c3c(-c4ccc(Oc5cccc(C)n5)cc4)c4c(N)ncnc4n3C)c2)C1 (single isomer, unassigned) [Example 1032]	≤ 100 nM	250 to 1000 nM	
C=C(C)C(=O)Nc1ccc(-c2c(C3=CC[C@@H](C(=O)N4CCCC45COC5)CC3)c3c(N)ncnc3n2C)c(C)c1 (single isomer, unassigned) [Example 1033]	≤ 100 nM	< 100 nM	
C=C(C)C(=O)Nc1ccc(-c2c(C3=CC[C@H](C(=O)N4CCCC4)CC3)c3c(N)ncnc3n2C)c(C)c1 (single isomer, unassigned) [Example 1034]	≤ 100 nM	100 to 250 nM	
C=C(C)C(=O)Nc1ccc(-c2c(C3=CC[C@@H](C(=O)N4CCCC4)CC3)c3c(N)ncnc3n2C)c(C)c1 (single isomer, unassigned) [Example 1035]	≤ 100 nM	< 100 nM	
CN(C)C/C=C/C(=O)Nc1ccc(-c2c(C3=CC[C@@H](C(=O)N4CCCC4)CC3)c3c(N)ncnc3n2C)cc1 (single isomer, unassigned) [Example 1036]	≤ 100 nM	250 to 1000 nM	
C=C(C)C(=O)Nc1ccc(-c2c(C3=CC[C@H](C(=O)N4CC[C@@H]5C[C@@H]54)CC3)c3c(N)ncnc3n2C)cc1 (single isomer, unassigned) [Example 1038]	≤ 100 nM	< 100 nM	

Source: patent US11780845B2 (Relay Therapeutics, Inc., priority 2019, dated 2023)
